These results are taken from US20240166680A1, “NUCLEOSIDE ANALOG AND USE THEREOF” (SHANGHAI INSTITUTE OF MATERIA MEDICA, CHINESE ACADEMY OF …, priority 2021, published 2024).

Read-outs that look alike come from different tables or passages of the source. Bounds are passed on as bounds.

As usually defined, the EC50 is the concentration at which the effect is half-maximal. In general, AUC(0-t) refers to exposure summed from dosing to a finite time, without extrapolation to infinity. As a reminder, the Cmax is the peak of the concentration-time curve. A word on the Tmax: it is the time from dosing to the highest level. For orientation: inhibition means the drop in the measured response relative to a control, in per cent.

For data set [1] the following is noted: in monkeys; cited from earlier work.
Data set [2] relates to Zika virus. Put plainly: Inhibition of Zika virus replication by CPE in Huh7. In kind it is cell-based.
The test system of data set [3] is porcine epidemic diarrhea virus (PEDV). Put plainly: Inhibition of PEDV replication in Vero cells by fluorescent quantitative PCR. The conditions noted are these: 36 h, read-out: PEDV (Vero) EC50.
Data set [4] in a line: Cytotoxicity in Huh7 cells (no viral infection). In kind it is cell-based. Particulars: human, without viral infection, read-out: HCoV OC43 (Huh7) CC50. How it is done: (§1) Determination of the inhibitory activity of compounds on the replication of respiratory syncytial virus (RSV), human coronavirus OC43, influenza A virus, and Zika virus by Cytopathogenic effect (CPE): the experimental cells were inoculated at a certain cell density to 96 well cell culture plates, and cultured overnight in a 5% CO2, 37° C. incubator. The compounds and viruses were added the next day. Depending on the tested virus, the cells were cultured in an incubator for 3-7 days under 5% CO2, 33° C. or 37° C., until 80-95% of the cells in the virus-infected control wells without compound had pathological changes. Cell viability in each well was then detected with CellTiter-Glo or CCK-8. […] The cytotoxicity test method is the same as the corresponding antiviral test method, but without viral infection.
(§2) The antiviral activity and cytotoxicity of the compound are represented by the inhibition rate (%) of the compound on the virus-induced cellular viral effect and the cell viability (%), respectively. Calculation equations are as follows:
(§3) Cell viability (%)=(reading value of test well−average value of medium control)/(average value of cell control−average value of medium control)×100;
(§4) EC50 and CC50 values were calculated by Prism software, and the inhibition curve fitting method was “log (inhibitor) vs. response—Variable slope”.

In data set [5] the test system is 2019 novel coronavirus (SARS-CoV-2). The data set is described as follows: Inhibition of SARS-CoV-2 replication in Vero cells (qRT-PCR). The format is cell-based. The conditions noted are these: Severe acute respiratory syndrome coronavirus 2, 48 hours, virus copy number in supernatant by qRT-PCR.
The subject of data set [6] is respiratory syncytial virus (RSV). The data set is described as follows: Inhibition of respiratory syncytial virus replication by CPE in HEp-2. In kind it is cell-based. Particulars: human respiratory syncytial virus, HEp-2, read-out: RSV (HEp-2) EC50.
Data set [7] is described as follows: Cytotoxicity in Vero cells (SARS-CoV-2 test). In kind it is cell-based. The conditions noted are these: African green monkey.
Data set [8] is described as follows: in vitro. The conditions noted are these: human.
Data set [9] deals with influenza A virus (H3N2). Put plainly: Inhibition of influenza virus H3N2 replication by CPE in MDCK. The conditions noted are these: MDCK cells. In kind it is cell-based.
The nature of data set [10]: Cytotoxicity in MDCK cells (no viral infection). The format is cell-based. The conditions noted are these: dog, without viral infection, read-out: H3N2 (MDCK) CC50. The protocol:
as §1, §2, §3, §4

Data set [11] is classed as in vivo, rat. The conditions noted are these: SD rats; for AUC(0-t) / AUC(0-∞) / Cmax / T1/2 / Tmax: nucleoside metabolite in plasma; for F % (bioavailability): nucleoside metabolite. How it is done: 6 Male SD rats for each compound were divided into 2 groups (gastric administration group and intravenous injection group), 3 rats in each group. The rates were fasted for 12 h before the experiment (the intravenous experiment group was not fasted), had free access to water, and ate uniformly 4 hours after the administration. The dosages of C22 and C23 were 16 mg/kg and 20 mg/kg for intragastric administration, respectively, and the administration vehicle was 5% DMSO+5% solutol+90% saline. The intravenous injection dosages were 4 mg/kg and 5 mg/kg respectively, and the administration vehicle was DMSO/EtOH/PEG300/0.9% NaCl (5/5/40/50, v/v/v/v). 0.2 mL of blood was collected from the jugular vein 5 min, 0.25 h, 0.5 h, 1.0 h, 2.0 h, 4.0 h, 6.0 h, 8.0 h and 24 h after the administration, placed in an EDTA-K2 test tube abd centrifuged at 11,000 rpm for 5 minutes, and the plasma was separated, and stored in a −70° C. refrigerator for testing. The operation was under an ice water bath. The concentration of nucleoside metabolites in plasma was determined by LC-MS-MS, and the pharmacokinetic parameters were calculated.

The format of data set [12] is in vivo, rat. The conditions noted are these: SD rats. How it is done: 6 Male SD rats for each compound were divided into 2 groups (gastric administration group and intravenous injection group), 3 rats in each group. The rats were fasted for 12 h before the experiment (the intravenous experiment group was not fasted), had free access to water, and ate uniformly 4 hours after the administration. […] The dosage of C38 was 10 mg/kg for intragastric administration, 2 mg/kg for intravenous injection, and the administration vehicle was DMSO/EtOH/PEG300/0.9% NaCl (5/5/40/50, v/v/v/v). 0.2 mL of blood was collected from the jugular vein at 5 min (intravenous group only), 0.25 h, 0.5 h, 1.0 h, 2.0 h, 4.0 h, 6.0 h, 8.0 h and 24 h after the administration, placed in an EDTA-K2 test tube and centrifuged at 11,000 rpm for 5 minutes, and the plasma was separated, and stored in a −70° C. refrigerator for testing. The operation was under an ice water bath. The concentration of nucleoside metabolites in plasma was determined by LC-MS-MS, and the pharmacokinetic parameters were calculated.

The format of data set [13] is in vivo, cynomolgus monkey. Particulars: cynomolgus monkeys, single intragastric 0.35 mmol/kg.
The mark [14] stands for this setting: nucleoside metabolite in plasma, iv 2 mg/kg.
Setting [15] is: nucleoside metabolite in plasma, po 10 mg/kg.

Turning to `N#C[C@@]1(c2ccc3c(N)ncnn23)O[C@H](CO)[C@@H](O)[C@H]1O` [GS-441524, (2R,3R,4S,5R)-2-(4-aminopyrrolo[2,1-F][1,2,4]triazin-7-yl)-3,4-dihydroxy-5-(hydroxymethyl)tetrahydrofuran-2-carbonitrile], the oral bioavailability result in data set [1] is given as “less than 10%”. Besides, the EC50 in data set [2] (Huh-7, read-out: Zika (Huh7) EC50) is 15000 nM; in data set [3] it was 310 nM; in [5], 470 nM; in data set [6], 730 nM. In addition, the CC50 in data set [4], in [7] and in [8] was over 10000 nM throughout.
Regarding `CC(C)C(=O)OC[C@@]1(F)O[C@@H](n2ccc(=O)[nH]c2=O)[C@@H]2OC(=O)O[C@@H]21` [Compound B2], the EC50 in data set [9] and in [6] was over 10000 nM each time. For the same molecule, the CC50 in data set [10] and in data set [8] was over 10000 nM in each case.
The molecule `CC(C)C(=O)OC[C@H]1O[C@@H](n2ccc(NO)nc2=O)[C@@H]2OC(=O)O[C@@H]21` [Compound A2] yielded an EC50 in data set [9] of over 10000 nM. In addition, the CC50 in [10] is over 10000 nM.
Regarding `O=C1O[C@H]2[C@H](n3ccc(=O)[nH]c3=O)O[C@](F)(COC(=O)C3CC3)[C@H]2O1` [Compound B4], the EC50 was found to be 1380 nM in [9] and 1020 nM in data set [6]. Moreover, the CC50 in data set [10] and in data set [8] was over 10000 nM in each case.
On to `CC(=O)OC[C@@]1(F)O[C@@H](n2ccc(=O)[nH]c2=O)[C@@H]2OC(=O)O[C@@H]21` [Compound B38], for which the EC50 in [9] came to 540 nM; in [6], 990 nM. Moreover, the CC50 in [10] and in [8] was over 10000 nM throughout.
As to `O=C1O[C@H]2[C@H](n3ccc(=O)[nH]c3=O)O[C@](F)(CO)[C@H]2O1` [Compound B1], the EC50 in data set [9] was 370 nM; in data set [6], 990 nM. The CC50 in [10] and in [8] was over 10000 nM each time.
For `CCCCCCCCCCCCCCCC(=O)OC[C@@]1(F)O[C@@H](n2ccc(=O)[nH]c2=O)[C@@H]2OC(=O)O[C@@H]21` [Compound B41], the EC50 was under 500 nM in data set [9] and 460 nM in data set [6]. The CC50 in data set [10] and in data set [8] was over 10000 nM each time.
`[2H]c1cc([C@]2(C#N)O[C@H](COC(=O)C(C)C)[C@H]3OC(=O)O[C@H]32)n2ncnc(N)c12` [Compound C23]: in [11] (iv 5 mg/kg), the “AUC(0-t)” value was found to be 3954 ng·h/mL, the “AUC(0-∞)” value came out at 4024 ng·h/mL, the Cmax is recorded as 3903 ng/mL and the T1/2 came out at 5.24 h. In addition, in [11] (po 20 mg/kg), the “AUC(0-t)” value was 11360 ng·h/mL, the “AUC(0-∞)” value worked out at 11393 ng·h/mL, the Cmax was found to be 2933 ng/mL and the T1/2 turned out to be 3.47 h. Besides, the Tmax in data set [11] (po 20 mg/kg) stood at 1.0 h. In addition, the “F % (bioavailability)” value in data set [11] (po 20 mg/kg vs iv 5 mg/kg) is 71.8%.
As to `[2H]c1cc([C@]2(C#N)O[C@H](CO)[C@H]3OC(CC)O[C@H]32)n2ncnc(N)c12` (stereo partly shown) [Compound C38], in [12] (setting [14]), the “AUC(0-t)” value was 551 ng·h/mL, the “AUC(0-∞)” value stood at 586 ng·h/mL, the Cmax was determined as 217 ng/mL and the T1/2 is recorded as 1.9 h. In addition, in data set [12] (setting [15]), the “AUC(0-t)” value was determined as 2388 ng·h/mL, the “AUC(0-∞)” value came to 2454 ng·h/mL, the Cmax was 586 ng/mL and the T1/2 is 3.1 h. Also, in data set [12] (setting [15]), the Tmax is given as 0.75 h. Moreover, the “F % (bioavailability)” value in [12] (nucleoside metabolite, po 10 mg/kg vs iv 2 mg/kg) is recorded as 87%.
Consider `CC(C)[C@H](N)C(=O)OC[C@@]1(F)O[C@@H](n2ccc(=O)[nH]c2=O)[C@@H]2OC(=O)O[C@@H]21` [Compound B6], for which the EC50 was under 500 nM in data set [9] and 3460 nM in data set [6]. Also, the CC50 in data set [10] and in data set [8] was over 10000 nM each time.
As to `O=c1ccn([C@@H]2O[C@](F)(CO)[C@@H](O)[C@H]2O)c(=O)[nH]1` [Compound B1-N, reference compound], the EC50 in data set [9] was under 1000 nM. Moreover, the inhibition at 5 µM in data set [2] (Huh-7, read-out: Zika (Huh7) Inhibition rate) came to 30%. For the same molecule, the CC50 in data set [10] was over 10000 nM.
`CCC(CC)COC(=O)[C@H](C)N[P@](=O)(OC[C@@]1(F)O[C@@H](n2ccc(=O)[nH]c2=O)[C@@H]2OC(=O)O[C@@H]21)Oc1ccccc1` [Compound B14]: the EC50 in [6] is 1080 nM. Besides, the CC50 in data set [8] was over 10000 nM.
Take `CC(C)[C@H](N)C(=O)OC[C@H]1O[C@@H](n2cc/c(=N/O)[nH]c2=O)[C@@H]2OC(=O)O[C@@H]21.Cl` [Compound A6]: in [13] (analyte A1), the AUC(0-t) stood at 818 ng·h/mL, the Cmax was 326 ng/mL, the Tmax is 1.50 h and the t1/2 was determined as 0.91 h. Further, in data set [13] (nucleoside metabolite NHC), the AUC(0-t) amounted to 2417 ng·h/mL, the Cmax stood at 1209 ng/mL, the T1/2 was found to be 0.83 h and the Tmax is on record as 1.50 h.
As to `[2H]c1cc([C@]2(C#N)O[C@H](CO)[C@H]3OC(=O)O[C@H]32)n2ncnc(N)c12` [Compound C22], in data set [11] (iv 4 mg/kg), the “AUC(0-t)” value turned out to be 2348 ng·h/mL, the “AUC(0-∞)” value worked out at 2398 ng·h/mL, the Cmax is on record as 2883 ng/mL and the T1/2 is recorded as 1.35 h. Besides, in data set [11] (po 16 mg/kg), the “AUC(0-t)” value amounted to 7068 ng·h/mL, the “AUC(0-∞)” value is 7157 ng·h/mL, the Cmax is given as 2217 ng/mL and the T1/2 was 1.08 h. The Tmax in data set [11] (po 16 mg/kg) was found to be 0.5 h. In data set [11] (po 16 mg/kg vs iv 4 mg/kg), the “F % (bioavailability)” value turned out to be 75.3%.
In the case of `N#C[C@@]1(c2ccc3c(N)ncnn23)O[C@H](CO)[C@H]2OC(=O)O[C@H]21` [Compound C21], the EC50 in data set [6] was 490 nM. The molecule further came in with a CC50 in data set [8] of over 10000 nM.
